# Source: ChEMBL document CHEMBL2010699, “Novel substituted 9-norbornylpurines and their activities against RNA viruses” (Bioorg Med Chem Lett, 2012)
# pEC50: −log10 of the molar value. Activity calls are given as the source filed them. No cut-off for these calls is given here.
# Experiments:
# Hepatitis C virus = assay: Antiviral activity against Hepatitis C virus assessed as suppression of viral replication; type: functional, organism-based; details: Hepacivirus hominis
# Chikungunya virus = assay: Antiviral activity against Chikungunya virus assessed as suppression of viral replication; type: functional
# Coxsackievirus B3 [1] = assay: Antiviral activity against Coxsackievirus B3 infected in african green monkey Vero cells assessed as inhibition virus-induced cell death by MTS assay; type: functional, organism-based; details: Enterovirus B
# [2] = Cytotoxicity against african green monkey Vero cells assessed as inhibition of host metabolism by MTS assay; type: cell-based; details: chlorocebus sabaeus
# Coxsackievirus B3 [3] = assay: Antiviral activity against Coxsackievirus B3 infected in african green monkey vero cells assessed as inhibition of virus-induced cytopathic effect by microscopic estimation; type: functional, organism-based
# [4] = Selectivity index, ratio of CC50 for african green monkey Vero cells to EC50 for Coxsackievirus B3; type: toxicity, cell-based; details: read-out: Ratio CC50/EC50
# Vero = assay: Cytotoxicity against african green monkey Vero cells assessed as change in morphology of the cells by microscopic analysis; type: cell-based; details: chlorocebus sabaeus
# [5] = Solubility of the compound in water at 20 degC by UV spectrophotometry; type: physicochemical
Structure (SMILES),Activity (Hepatitis C virus),Activity (Chikungunya virus),pEC50 (Coxsackievirus B3 [1]),CC50 [2],Activity (Coxsackievirus B3 [3]),selectivity ratio [4],Activity (Vero),EC90 (Coxsackievirus B3 [1]),solubility [5]
OCCO[C@H]1C[C@H]2C[C@@H]1C[C@@H]2n1cnc2c(Cl)ncnc21 (relative stereo),inactive,inactive,4.43,> 648 µM,Active,> 18,Non-toxic,,
CCCCCCCC(=O)O[C@H]1C[C@H]2C[C@@H]1[C@H](n1cnc3c(Cl)ncnc31)C2 (relative stereo),inactive,inactive,< 4.30,50 µM,,< 1,,> 50 µM,
CCCCCCCCCC(=O)O[C@H]1C[C@H]2C[C@@H]1C[C@@H]2n1cnc2c(Cl)ncnc21 (relative stereo),inactive,inactive,4.49,47 µM,Active,1.5,Non-toxic,> 47 µM,
Clc1ncnc2c1ncn2C1CC2CCC1C2 (stereo unspecified),,,,,,,,,530 µg/mL
CCCCCC(=O)O[C@H]1C[C@H]2C[C@@H]1C[C@@H]2n1cnc2c(Cl)ncnc21 (relative stereo),inactive,inactive,4.47,60 µM,Active,1.8,Non-toxic,56 µM,
OCCCCCO[C@H]1C[C@H]2C[C@@H]1C[C@@H]2n1cnc2c(Cl)ncnc21 (relative stereo),inactive,inactive,4.66,> 570 µM,Active,> 26,Non-toxic,30 µM,
Clc1ncnc2c1ncn2[C@@H]1C[C@@H]2C[C@H]1[C@@H](Oc1ccccc1)C2 (relative stereo),inactive,inactive,< 3.82,> 587 µM,,,,> 150 µM,
O=C(OC1CC2CC1C(n1cnc3c(Cl)ncnc31)C2)c1ccccc1 (stereo unspecified),inactive,inactive,4.46,45 µM,,1.3,,> 45 µM,
Oc1ccc(O[C@H]2C[C@H]3C[C@@H]2C[C@@H]3n2cnc3c(Cl)ncnc32)cc1 (relative stereo),inactive,inactive,4.24,217 µM,,3.7,,,
Clc1ncnc2c1ncn2[C@H]1C[C@H]2C[C@@H]1C[C@@H]2OC1CCCCC1 (relative stereo),inactive,inactive,< 4.66,22 µM,,< 1,,> 22 µM,
OCCCCO[C@H]1C[C@H]2C[C@@H]1C[C@@H]2n1cnc2c(Cl)ncnc21 (relative stereo),inactive,inactive,4.43,> 594 µM,Active,> 16,Non-toxic,53 µM,
CCCCCCCCCC(=O)O[C@H]1C[C@H]2C[C@@H]1[C@H](n1cnc3c(Cl)ncnc31)C2 (relative stereo),inactive,inactive,< 4.36,44 µM,,< 1,,> 44 µM,
CCCCCC(=O)O[C@H]1C[C@H]2C[C@@H]1[C@H](n1cnc3c(Cl)ncnc31)C2 (relative stereo),inactive,inactive,< 4.15,70 µM,,< 1,,> 70 µM,
CO[C@H]1C[C@H]2C[C@@H]1C[C@@H]2n1cnc2c(Cl)ncnc21 (relative stereo),inactive,inactive,4.57,> 718 µM,Active,> 27,Non-toxic,37 µM,
OCCO[C@H]1C[C@H]2C[C@@H]1[C@H](n1cnc3c(Cl)ncnc31)C2 (relative stereo),inactive,inactive,4.54,> 648 µM,Active,> 22,Non-toxic,37 µM,
CCCCCO[C@H]1C[C@H]2C[C@@H]1C[C@@H]2n1cnc2c(Cl)ncnc21 (relative stereo),inactive,inactive,4.68,32 µM,,1.5,,> 32 µM,
C[C@@]1(O)[C@H](O)[C@@H](CO)O[C@H]1n1ccc(N)nc1=O,,,4.03,,,,,179 µM,
OCCCO[C@H]1C[C@H]2C[C@@H]1C[C@@H]2n1cnc2c(Cl)ncnc21 (relative stereo),inactive,inactive,4.33,> 620 µM,Active,> 13,Non-toxic,,
CCCCCCCC(=O)O[C@H]1C[C@H]2C[C@@H]1C[C@@H]2n1cnc2c(Cl)ncnc21 (relative stereo),inactive,inactive,< 4.28,52 µM,,< 1,,> 52 µM,
OCCO[C@@H]1C[C@H]2C[C@@H]1C[C@@H]2n1cnc2c(Cl)ncnc21 (relative stereo),inactive,inactive,4.80,> 648 µM,Active,> 41,Non-toxic,32 µM,4570 µg/mL
CCCCCCO[C@H]1C[C@H]2C[C@@H]1C[C@@H]2n1cnc2c(Cl)ncnc21 (relative stereo),inactive,inactive,< 4.57,27 µM,,< 1,,> 27 µM,
OCCO[C@@H]1C[C@H]2C[C@@H]1[C@H](n1cnc3c(Cl)ncnc31)C2 (relative stereo),inactive,inactive,4.89,> 648 µM,Active,> 50,Non-toxic,22 µM,4690 µg/mL
OCCOCCO[C@H]1C[C@H]2C[C@@H]1C[C@@H]2n1cnc2c(Cl)ncnc21 (relative stereo),inactive,inactive,4.38,> 567 µM,Active,> 14,Non-toxic,60 µM,7460 µg/mL
O=C(OC1CC2CC1CC2n1cnc2c(Cl)ncnc21)c1ccccc1 (stereo unspecified),inactive,inactive,< 3.82,> 542 µM,,,,> 150 µM,
Clc1ncnc2c1ncn2[C@H]1C[C@H]2C[C@@H]1C[C@@H]2Oc1ccccc1 (relative stereo),inactive,inactive,< 4.30,50 µM,,< 1,,> 50 µM,
